Source: patent publication US6521751B1, “Recombinant nucleic acid sequences and methods for determining both genotoxicity and mutagenicity of a sample and the kinetics of the genotoxicity” (Vlaamse Instelling voor Technologisch Onderzoek (VITO), priority 1998, dated 2003)
Where two headings read alike, the source gives them in different places.

Legend:
[1] = tested on: TA 98 and TA104 strains containing pMOL1067 or pMOL1068
E. coli (sfiA-lacZ) = details: cited from earlier work
S. typhimurium = details: cited from earlier work
[2] = tested on: novel biosensor systems in E. coli and in S. typhimurium strains; experiment: Subject SOS promoter-lux systems (general statements); details: for result in the novel systems according to the invention: agents known to give false negative results in the SOS chromotest and the Ames test
[3] = tested on: TA98 and TA104 strains containing pMOL890, pMOL1067 or pMOL1068; experiment: Test with the TA98 and TA104 strains containing pMOL890, pMOL1067 or pMOL1068
[4] = TA 98 and TA104 strains containing pMOL1067 or pMOL1068

Compound | SOS (result) (E. coli (sfiA-lacZ)) | AMES (result) (S. typhimurium) | OUTCOME (genotoxicity, final outcome) [1, 4] | SOS (result) (E. coli (sfiA-lacZ); SOS chromotest, Table 3) | further results
ClCC1CO1 (stereo not drawn) [Epichlorohydrine] | pos | pos |  |  | OUTCOME (genotoxicity, final outcome) [1]: pos
c1cc2ccc3cccc4ccc(c1)c2c34 [Pyrene] |  | neg | pos |  | result in the Ames test (S. typhimurium): False-negative; result in the novel systems according to the invention [2]: positive; result in the test (genotoxicity) [3]: positive
S=C1NCCN1 [Ethylenethiourea] |  | pos |  |  | 
CN(Cc1cnc2nc(N)nc(N)c2n1)c1ccc(C(=O)N[C@@H](CCC(=O)O)C(=O)O)cc1 [Methotrexate] |  |  | pos | pos | AMES (result) (S. typhimurium; Ames test, Table 3): pos
CCN(CC)N=O [N-Nitrosodiethylamine] |  | pos | pos | pos | 
CO[C@@]12[C@H](COC(N)=O)C3=C(C(=O)C(C)=C(N)C3=O)N1C[C@@H]1N[C@@H]12 [Mitomycin C] |  |  |  |  | level that can be detected ([2]; subject systems): 7 ng/mL
Oc1c(Cl)c(Cl)c(Cl)c(Cl)c1Cl [Pentachlorophenole] | pos |  |  |  | 
O=C(N/N=C/c1ccc([N+](=O)[O-])o1)c1ccc(O)cc1 [Nifuroxazide] |  |  | pos |  | AMES (result) (S. typhimurium; Ames test, Table 3): pos
Cl[C@H]1[C@H](Cl)[C@@H](Cl)[C@@H](Cl)[C@H](Cl)[C@H]1Cl [Lindane] |  | neg | neg | neg | 
CCn1cc(C(=O)O)c(=O)c2ccc(C)nc21 [Nalidixic acid] |  | neg | pos |  | result in the Ames test (S. typhimurium): False-negative; result in the novel systems according to the invention [2]: positive; result in the test (genotoxicity) [3]: positive
COC(=O)N/N=C/c1c[n+]([O-])c2ccccc2[n+]1[O-] [Carbadox] |  |  | pos | pos | AMES (result) (S. typhimurium; Ames test, Table 3): pos
O=P1(N(CCCl)CCCl)NCCCO1 (stereo not drawn) [Cyclophosphamide] | neg | pos |  |  | OUTCOME (genotoxicity, final outcome) [1]: neg; result in the test (genotoxicity) [3]: negative
NN [Hydrazine] |  | pos | pos | pos | 
CCCCCCCCCCCCOS(=O)(=O)[O-].[Na+] [Sodium Dodecyl Sulphate] |  |  | neg |  | AMES (result) (S. typhimurium; Ames test, Table 3): neg
c1ccc2cc3ccccc3cc2c1 [Anthracene] |  | neg | neg | neg | 
CNC(=O)Oc1cccc2ccccc12 [Carbaryl] | pos |  |  |  | 
c1ccc2ccccc2c1 [Naphtalene] | neg |  |  |  | OUTCOME (genotoxicity, final outcome) [1]: neg
[N-]=[N+]=[N-] [Sodiumazide] |  | pos | pos | neg | result in the SOS chromotest (E. coli (sfiA-lacZ); text b126): negative; result in the novel systems according to the invention [2]: positive; result in the test (genotoxicity) [3]: positive
CCOS(C)(=O)=O [Ethylmethanesulphonate] | pos | pos |  |  | OUTCOME (genotoxicity, final outcome) [1]: pos
4-nitroquinoline-N-oxyde [4-NQO] | pos |  |  |  | OUTCOME (genotoxicity, final outcome) [1]: pos; MINIMAL DETECTED CONCENTRATION (MDC) (E. coli (sfiA-lacZ)): 0.006 nmol/assay
[Cl-].[Cl-].[Zn+2] [ZnCl2] | neg | neg |  |  | OUTCOME (genotoxicity, final outcome) [1]: neg
